Measured values from patent publication US6642227B2, “Inhibitors of c-Jun N-terminal kinases (JNK) and other protein kinases” (Vertex Pharmaceuticals Incorporated, priority 2001, dated 2003).

Tests used:
human Lck kinase = human Lck kinase (UniProt P06239); assay: Lck inhibition assay (A: radioactivity-based or B: spectrophotometric coupled-enzyme assay); format: biochemical; conditions: read-out: Lck Activity (Ki rating)
Procedure: The compounds were evaluated as inhibitors of human Lck kinase using either a radioactivity-based assay or spectrophotometric assay.
The compounds were assayed as inhibitors of full length bovine thymus Lck kinase (from Upstate Biotechnology, cat. no. 14-106) expressed and purified from baculo viral cells. Lck kinase activity was monitored by following the incorporation of ^33p from ATP into the tyrosine of a random poly Glu-Tyr polymer substrate of composition, Glu:Tyr=4:1 (Sigma, cat. no. P-0275). The following were the final concentrations of the assay components: 0.025 M HEPES, pH 7.6, 10 mM MgCl2, 2 mM DTT, 0.25 mg/ml BSA, 10 μM ATP (1-2 μCi ^33P-ATP per reaction), 5 mg/ml poly Glu-Tyr, and 1-2 units of recombinant human […] kinase. In a typical assay, all the reaction components with the exception of ATP were pre-mixed and aliquoted into assay plate wells. Inhibitors dissolved in DMSO were added to the wells to give a final DMSO concentration of 2.5%. The assay plate was incubated at 30 C. for 10 min before initiating the reaction with ^33P-ATP. After 20 min of reaction, the reactions were quenched with 150 μl of 10% trichloroacetic acid (TCA) containing 20 mM Na3PO4. The quenched samples were then transferred to a 96-well filter plate (Whatman, UNI-Filter GF/F Glass Fiber Filter, cat no. 7700-3310) installed on a filter plate vacuum manifold. Filter plates were washed four times with 10% TCA containing 20 mM Na3PO4 and then 4 times with methanol. 200 μl of scintillation fluid was then added to each well. The plates were sealed and the amount of radioactivity associated with the filters was quantified on a TopCount scintillation counter. The radioactivity incorporated was plotted as a function of the inhibitor concentration. The data was fitted to a competitive inhibition kinetics model to get the Ki for the compound.
(§1) The ADP produced from ATP by the human recombinant Lck kinase-catalyzed phosphorylation of poly Glu-Tyr substrate was quanitified using a coupled enzyme assay (Fox et al (1998) Protein Sci 7, 2249). In this assay one molecule of NADH is oxidised to NAD for every molecule of ADP produced in the kinase reaction. The disappearance of NADH can be conveniently followed at 340 nm.
(§2) The following were the final concentrations of the assay components: 0.025 M HEPES, pH 7.6, 10 mM MgCl2, 2 mM DTT, 5 mg/ml poly Glu-Tyr, and 50 nM of recombinant human Lck kinase. Final concentrations of the components of the coupled enzyme system were 2.5 mM phosphoenolpyruvate, 200 μM NADH, 30 μg/ml pyruvate kinase and 10 μg/ml lactate dehydrogenase.
(§3) In a typical assay, all the reaction components with the exception of ATP were pre-mixed and aliquoted into assay plate wells. Inhibitors dissolved in DMSO were added to the wells to give a final DMSO concentration of 2.5%. The assay plate was incubated at 30° C. for 10 min before initiating the reaction with 150 μM ATP. The absorbance change at 340 nm with time, the rate of the reaction, was monitored on a molecular devices plate reader. The data of rate as a function of the inhibitor concentration was fitted to competitive inhibition kinetics model to get the Ki for the compound.

human Src kinase = molecular target: T1, human Src kinase (Homo sapiens, UniProt P12931); assay: Src inhibition assay (A: radioactivity-based or B: spectrophotometric coupled-enzyme assay); format: biochemical; conditions: assay A or B not specified; read-out: Src Activity (Ki class A-C)
T1 construct: full length recombinant human Src kinase; purchased Upstate Biotechnology 14-117; host or cells: baculovirus-infected cells
Procedure: The compounds were evaluated as inhibitors of human Src kinase using either a radioactivity-based assay or spectrophotometric assay.
The compounds were assayed as inhibitors of full length recombinant human Src kinase (from Upstate Biotechnology, cat. no. 14-117) expressed and purified from baculo viral cells. Src kinase activity was monitored by following the incorporation of ^33p from ATP into the tyrosine of a random poly Glu-Tyr polymer substrate of composition, Glu:Tyr=4:1 (Sigma, cat. no. P-0275). The following were the final concentrations of the assay components: 0.05 M HEPES, pH 7.6, 10 mM MgCl2, 2 mM DTT, 0.25 mg/ml BSA, 10 μM ATP (1-2 uCi ^33P-ATP per reaction), 5 mg/ml poly Glu-Tyr, and 1-2 units of recombinant human Src kinase. In a typical assay, all the reaction components with the exception of ATP were pre-mixed and aliquoted into assay plate wells.
Inhibitors dissolved in DMSO were added to the wells to give a final DMSO concentration of 2.5%. The assay plate was incubated at 30° C. for 10 min before initiating the reaction with ^33P-ATP. After 20 min of reaction, the reactions were quenched with 150 μl of 10% trichloroacetic acid (TCA) containing 20 mM Na3PO4. The quenched samples were then transferred to a 96-well filter plate (Whatman, UNI-Filter GF/F Glass Fiber Filter, cat no. 7700-3310) installed on a filter plate vacuum manifold. Filter plates were washed four times with 10% TCA containing 20 mM Na3PO4 and then 4 times with methanol. 200 μl of scintillation fluid was then added to each well. The plates were sealed and the amount of radioactivity associated with the filters was quantified on a TopCount scintillation counter. The radioactivity incorporated was plotted as a function of the inhibitor concentration. The data was fitted to a competitive inhibition kinetics model to get the Ki for the compound.
as §1, with “Src” for “Lck”
as §2, with “DTT, 0.25” for “DTT, 5”, “and 25” for “and 50”, “human Src” for “human Lck”
as §3, with “30” for “30°”, “100” for “150”, “compettive” for “competitive”

T1 sequence (P12931 whole entry): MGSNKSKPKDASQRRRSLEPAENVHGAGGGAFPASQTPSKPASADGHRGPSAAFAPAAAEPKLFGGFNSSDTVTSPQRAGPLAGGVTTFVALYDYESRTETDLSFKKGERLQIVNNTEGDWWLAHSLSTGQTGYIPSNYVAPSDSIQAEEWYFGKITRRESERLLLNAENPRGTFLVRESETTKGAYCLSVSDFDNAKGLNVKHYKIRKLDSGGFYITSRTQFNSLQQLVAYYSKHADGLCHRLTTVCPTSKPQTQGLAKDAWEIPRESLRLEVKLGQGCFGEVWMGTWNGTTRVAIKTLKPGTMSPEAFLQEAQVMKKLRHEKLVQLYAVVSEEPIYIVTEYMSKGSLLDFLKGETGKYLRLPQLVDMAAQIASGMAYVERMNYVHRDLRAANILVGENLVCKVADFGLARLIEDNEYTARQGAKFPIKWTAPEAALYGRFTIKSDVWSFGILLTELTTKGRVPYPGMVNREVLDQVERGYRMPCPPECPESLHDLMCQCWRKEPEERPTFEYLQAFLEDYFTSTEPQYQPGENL

| Ki (human Lck kinase) [nM] | Ki (human Src kinase) [nM] | Structure (SMILES) |
| --- | --- | --- |
| < 100 | < 100 | N#Cc1c(O)sc(-c2ccnc(Nc3cccc(OCc4ccccc4)c3)n2)c1-c1ccccc1 [IIa-42, 5-[2-(3-Benzyloxy-phenylamino)-pyrimidin-4-yl]-2-hydroxy-4-phenyl-thiophene-3-carbonitrile] |
| 100 to 1000 | > 1000 | CCNc1sc(-c2ccnc(Nc3cccc(OC)c3)n2)c(-c2ccccc2)c1C(=O)OCC [IIa-90, 2-Ethylamino-5-[2-(3-methoxy-phenylamino)-pyrimidin-4-yl]-4-phenyl-thiophene-3-carboxylic acid ethyl ester] |
| < 100 | < 100 | CSc1sc(-c2ccnc(Nc3cccc(NC(=O)CCCNC(C)=O)c3)n2)c(-c2cccnc2)c1C#N [VI-130] |
| < 100 | 100 to 1000 | CSc1sc(-c2ccnc(Nc3cccc(OCCCNCCO)c3)n2)c(-c2cccc(OCc3ccccc3)c2)c1C#N [VI-132] |
| < 100 | < 100 | CSc1sc(-c2ccnc(Nc3cccc(OCCCNCCCO)c3)n2)c(-c2cccc(OCc3ccccc3)c2)c1C#N [VI-133] |
| < 100 | < 100 | CSc1sc(-c2ccnc(Nc3cccc(OCCCNCCO)c3)n2)c(-c2cccc(O)c2)c1C#N [VI-134] |
| < 100 | < 100 | CSc1sc(-c2ccnc(Nc3cccc(OCCCNCCCO)c3)n2)c(-c2cccc(O)c2)c1C#N [VI-135] |
| < 100 | < 100 | CCCCS(=O)(=O)Nc1cccc(Nc2nccc(-c3sc(SC)c(C#N)c3-c3cccnc3)n2)c1 [VI-141] |

Second part, the molecule before the results:

| Structure (SMILES) | Ki (human Lck kinase) [nM] | Ki (human Src kinase) [nM] |
| --- | --- | --- |
| COCCNCCCOc1cccc(Nc2ncc(C)c(-c3sc(SC)c(C#N)c3-c3cccnc3)n2)c1 [VI-20] | < 100 | < 100 |
| CSc1sc(-c2nc(Nc3cccc(OCCCN4CCC[C@H]4CO)c3)ncc2C)c(-c2cccnc2)c1C#N [VI-24] | < 100 | < 100 |
| CSc1sc(-c2nc(Nc3cccc(OCCCN4CCOCC4)c3)ncc2C)c(-c2cccnc2)c1C#N [VI-117] | 100 to 1000 | 100 to 1000 |
| CSc1sc(-c2nc(Nc3cccc(OCCCN4CCNCC4)c3)ncc2C)c(-c2cccnc2)c1C#N [VI-118] | < 100 | 100 to 1000 |
| CSc1sc(-c2nc(Nc3cccc(OCCNCCO)c3)ncc2C)c(-c2cccnc2)c1C#N [VI-119] | < 100 | 100 to 1000 |
| CSc1sc(-c2nc(Nc3cccc(OCCN4CCC(CO)CC4)c3)ncc2C)c(-c2cccnc2)c1C#N [VI-120] | < 100 | < 100 |
